Assay in all cases: relative viability (nuclei count vs DMSO), 5 days (fraction); higher = more cells survive
Compound in the assay “Tipifarnib + Navitoclax”: Cn1cncc1[C@@](N)(c1ccc(Cl)cc1)c1ccc2c(c1)c(-c1cccc(Cl)c1)cc(=O)n2C [Tipifarnib] + CC1(C)CCC(c2ccc(Cl)cc2)=C(CN2CCN(c3ccc(C(=O)NS(=O)(=O)c4ccc(N[C@H](CCN5CCOCC5)CSc5ccccc5)c(S(=O)(=O)C(F)(F)F)c4)cc3)CC2)C1 [Navitoclax] (partner 0.5 µM)
The method, boiled down:
(§1)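 For relative viability, nuclei counts in treated wells were divided by those in vehicle wells. Lung cancer cell lines had been pin-tool dosed in 1536-well plates the day after seeding and cultured for 5 days, then fixed and stained in one step (final 0.05% Triton X-100, 1% formaldehyde, 1 ug/ml Hoechst) and imaged at 4×. Doses were one drug alone or a fixed anchor-drug dose plus five library-drug doses (not always all listed) in √10 steps, and values are duplicate-plate medians.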

Compound in the assay “Tipifarnib + Trametinib”: Cn1cncc1[C@@](N)(c1ccc(Cl)cc1)c1ccc2c(c1)c(-c1cccc(Cl)c1)cc(=O)n2C [Tipifarnib] + CC(=O)Nc1cccc(-n2c(=O)n(C3CC3)c(=O)c3c(Nc4ccc(I)cc4F)n(C)c(=O)c(C)c32)c1 [Trametinib] (partner 0.02 µM)
A digest of the protocol:
as §1

Compound in the assay “Tipifarnib + Phenformin”: Cn1cncc1[C@@](N)(c1ccc(Cl)cc1)c1ccc2c(c1)c(-c1cccc(Cl)c1)cc(=O)n2C [Tipifarnib] + N=C(N)NC(=N)NCCc1ccccc1 [Phenformin] (partner 250 µM)
A digest of the protocol:
as §1

Compound in the assay “Tipifarnib + Pemetrexed”: Cn1cncc1[C@@](N)(c1ccc(Cl)cc1)c1ccc2c(c1)c(-c1cccc(Cl)c1)cc(=O)n2C [Tipifarnib] + Nc1nc2[nH]cc(CCc3ccc(C(=O)N[C@@H](CCC(=O)O)C(=O)O)cc3)c2c(=O)[nH]1 [Pemetrexed] (partner 0.2 µM)
The method, boiled down:
as §1

As to NCI-H2087, the relative viability was found to be 0.918 in the assay with Tipifarnib + Navitoclax (first compound 0.01 µM); 0.559 with Tipifarnib + Navitoclax (first compound 0.03162 µM); 0.407 in the assay with Tipifarnib + Navitoclax (first compound 0.1 µM); 0.411 with Tipifarnib + Navitoclax (first compound 0.3162 µM); 0.467 in the assay with Tipifarnib + Navitoclax (first compound 1 µM); 0.157 with Tipifarnib + Trametinib (first compound 0.01 µM). Further, the relative viability stood at 0.221 with Tipifarnib + Trametinib (first compound 0.03162 µM); 0.235 in the assay with Tipifarnib + Trametinib (first compound 0.1 µM); 0.145 in the assay with Tipifarnib + Trametinib (first compound 0.3162 µM); 0.14 with Tipifarnib + Trametinib (first compound 1 µM); 0.463 with Tipifarnib + Phenformin (first compound 0.01 µM); 0.38 with Tipifarnib + Phenformin (first compound 0.03162 µM). The relative viability was 0.298 with Tipifarnib + Phenformin (first compound 0.1 µM); 0.294 in the assay with Tipifarnib + Phenformin (first compound 0.3162 µM); 0.222 with Tipifarnib + Phenformin (first compound 1 µM); 0.58 with Tipifarnib + Pemetrexed (first compound 0.01 µM); 0.569 with Tipifarnib + Pemetrexed (first compound 0.03162 µM); 0.383 with Tipifarnib + Pemetrexed (first compound 0.1 µM). In addition, the relative viability in the assay with Tipifarnib + Pemetrexed (first compound 0.3162 µM) worked out at 0.326; in the assay with Tipifarnib + Pemetrexed (first compound 1 µM) it was 0.373.

In the case of LU99A, the relative viability with Tipifarnib + Navitoclax (first compound 0.01 µM) stood at 0.668; in the assay with Tipifarnib + Navitoclax (first compound 0.03162 µM) it was 0.618; in the assay with Tipifarnib + Navitoclax (first compound 0.1 µM) it was 0.488; with Tipifarnib + Navitoclax (first compound 0.3162 µM), 0.455; with Tipifarnib + Navitoclax (first compound 1 µM) it was 0.356; in the assay with Tipifarnib + Trametinib (first compound 0.01 µM), 0.394. Moreover, the relative viability amounted to 0.431 with Tipifarnib + Trametinib (first compound 0.03162 µM); 0.312 in the assay with Tipifarnib + Trametinib (first compound 0.1 µM); 0.25 in the assay with Tipifarnib + Trametinib (first compound 0.3162 µM); 0.209 with Tipifarnib + Trametinib (first compound 1 µM); 0.918 with Tipifarnib + Phenformin (first compound 0.01 µM); 0.623 with Tipifarnib + Phenformin (first compound 0.03162 µM). Besides, the relative viability with Tipifarnib + Phenformin (first compound 0.1 µM) was found to be 0.515; with Tipifarnib + Phenformin (first compound 0.3162 µM) it was 0.404; with Tipifarnib + Phenformin (first compound 1 µM), 0.359; with Tipifarnib + Pemetrexed (first compound 0.01 µM), 0.201; with Tipifarnib + Pemetrexed (first compound 0.03162 µM) it was 0.202; in the assay with Tipifarnib + Pemetrexed (first compound 0.1 µM), 0.2. The relative viability with Tipifarnib + Pemetrexed (first compound 0.3162 µM) was 0.217; in the assay with Tipifarnib + Pemetrexed (first compound 1 µM) it was 0.196.

Turning to NCI-H1355, the relative viability was 0.906 with Tipifarnib + Navitoclax (first compound 0.01 µM); 0.791 with Tipifarnib + Navitoclax (first compound 0.03162 µM); 0.767 in the assay with Tipifarnib + Navitoclax (first compound 0.1 µM); 0.614 with Tipifarnib + Navitoclax (first compound 0.3162 µM); 0.628 with Tipifarnib + Navitoclax (first compound 1 µM); 0.486 with Tipifarnib + Trametinib (first compound 0.01 µM). Moreover, the relative viability in the assay with Tipifarnib + Trametinib (first compound 0.03162 µM) was determined as 0.387; with Tipifarnib + Trametinib (first compound 0.1 µM) it was 0.357; with Tipifarnib + Trametinib (first compound 0.3162 µM), 0.352; with Tipifarnib + Trametinib (first compound 1 µM), 0.339; with Tipifarnib + Phenformin (first compound 0.01 µM) it was 0.427; in the assay with Tipifarnib + Phenformin (first compound 0.03162 µM), 0.44. For the same cell line, the relative viability amounted to 0.429 with Tipifarnib + Phenformin (first compound 0.1 µM); 0.403 with Tipifarnib + Phenformin (first compound 0.3162 µM); 0.344 with Tipifarnib + Phenformin (first compound 1 µM); 1.04 in the assay with Tipifarnib + Pemetrexed (first compound 0.01 µM); 0.966 with Tipifarnib + Pemetrexed (first compound 0.03162 µM); 0.81 with Tipifarnib + Pemetrexed (first compound 0.1 µM). Further, the relative viability in the assay with Tipifarnib + Pemetrexed (first compound 0.3162 µM) stood at 0.776; in the assay with Tipifarnib + Pemetrexed (first compound 1 µM), 0.745.

As for NCI-H520, the relative viability in the assay with Tipifarnib + Navitoclax (first compound 0.01 µM) was 1.24; with Tipifarnib + Navitoclax (first compound 0.03162 µM), 1.03; in the assay with Tipifarnib + Navitoclax (first compound 0.1 µM) it was 0.917; with Tipifarnib + Navitoclax (first compound 0.3162 µM) it was 0.965; with Tipifarnib + Navitoclax (first compound 1 µM), 0.72; with Tipifarnib + Trametinib (first compound 0.01 µM), 0.87. For the same cell line, the relative viability with Tipifarnib + Trametinib (first compound 0.03162 µM) is 0.642; with Tipifarnib + Trametinib (first compound 0.1 µM), 0.7; in the assay with Tipifarnib + Trametinib (first compound 0.3162 µM), 0.521; with Tipifarnib + Trametinib (first compound 1 µM), 0.315; in the assay with Tipifarnib + Phenformin (first compound 0.01 µM) it was 0.591; with Tipifarnib + Phenformin (first compound 0.03162 µM), 0.319. The relative viability with Tipifarnib + Phenformin (first compound 0.1 µM) came out at 0.447; in the assay with Tipifarnib + Phenformin (first compound 0.3162 µM), 0.425; with Tipifarnib + Phenformin (first compound 1 µM), 0.267; with Tipifarnib + Pemetrexed (first compound 0.01 µM), 0.726; with Tipifarnib + Pemetrexed (first compound 0.03162 µM), 0.652; in the assay with Tipifarnib + Pemetrexed (first compound 0.1 µM), 0.574. Besides, the figures for the relative viability with Tipifarnib + Pemetrexed (first compound 0.3162 µM) and in the assay with Tipifarnib + Pemetrexed (first compound 1 µM) were 0.511 and 0.528, respectively.

With NCI-H661, the relative viability amounted to 0.627 with Tipifarnib + Trametinib (first compound 0.01 µM); 0.487 in the assay with Tipifarnib + Trametinib (first compound 0.03162 µM); 0.482 with Tipifarnib + Trametinib (first compound 0.1 µM); 0.396 with Tipifarnib + Trametinib (first compound 0.3162 µM); 0.456 in the assay with Tipifarnib + Trametinib (first compound 1 µM); 0.29 with Tipifarnib + Phenformin (first compound 0.01 µM). Moreover, the relative viability with Tipifarnib + Phenformin (first compound 0.03162 µM) is 0.283; in the assay with Tipifarnib + Phenformin (first compound 0.1 µM), 0.275; with Tipifarnib + Phenformin (first compound 0.3162 µM), 0.261; with Tipifarnib + Phenformin (first compound 1 µM), 0.309; with Tipifarnib + Pemetrexed (first compound 0.01 µM) it was 0.881; with Tipifarnib + Pemetrexed (first compound 0.03162 µM), 0.849. The relative viability with Tipifarnib + Pemetrexed (first compound 0.1 µM) worked out at 0.786; with Tipifarnib + Pemetrexed (first compound 0.3162 µM), 0.809; with Tipifarnib + Pemetrexed (first compound 1 µM), 0.755.

Turning to NCI-H650, the relative viability amounted to 1.09 in the assay with Tipifarnib + Trametinib (first compound 0.01 µM); 0.911 in the assay with Tipifarnib + Trametinib (first compound 0.03162 µM); 0.841 with Tipifarnib + Trametinib (first compound 0.1 µM); 0.696 with Tipifarnib + Trametinib (first compound 0.3162 µM); 0.549 with Tipifarnib + Trametinib (first compound 1 µM); 0.411 with Tipifarnib + Phenformin (first compound 0.01 µM). Besides, the relative viability was found to be 0.419 with Tipifarnib + Phenformin (first compound 0.03162 µM); 0.419 with Tipifarnib + Phenformin (first compound 0.1 µM); 0.408 with Tipifarnib + Phenformin (first compound 0.3162 µM); 0.277 in the assay with Tipifarnib + Phenformin (first compound 1 µM); 1.02 in the assay with Tipifarnib + Pemetrexed (first compound 0.01 µM); 0.917 with Tipifarnib + Pemetrexed (first compound 0.03162 µM). For the same cell line, the results for the relative viability in the assay with Tipifarnib + Pemetrexed (first compound 0.1 µM), with Tipifarnib + Pemetrexed (first compound 0.3162 µM) and in the assay with Tipifarnib + Pemetrexed (first compound 1 µM) were 0.846, 0.626 and 0.36, respectively.

Take NCI-H647: the relative viability with Tipifarnib + Navitoclax (first compound 0.01 µM) was determined as 0.983; with Tipifarnib + Navitoclax (first compound 0.03162 µM) it was 0.813; in the assay with Tipifarnib + Navitoclax (first compound 0.1 µM), 0.822; in the assay with Tipifarnib + Navitoclax (first compound 0.3162 µM) it was 0.397; with Tipifarnib + Navitoclax (first compound 1 µM), 0.37; with Tipifarnib + Trametinib (first compound 0.01 µM), 0.475. Moreover, the relative viability came to 0.419 with Tipifarnib + Trametinib (first compound 0.03162 µM); 0.418 with Tipifarnib + Trametinib (first compound 0.1 µM); 0.254 in the assay with Tipifarnib + Trametinib (first compound 0.3162 µM); 0.225 in the assay with Tipifarnib + Trametinib (first compound 1 µM); 0.499 with Tipifarnib + Phenformin (first compound 0.01 µM); 0.353 with Tipifarnib + Phenformin (first compound 0.03162 µM). In addition, the relative viability came out at 0.469 in the assay with Tipifarnib + Phenformin (first compound 0.1 µM); 0.262 in the assay with Tipifarnib + Phenformin (first compound 0.3162 µM); 0.114 with Tipifarnib + Phenformin (first compound 1 µM); 0.209 in the assay with Tipifarnib + Pemetrexed (first compound 0.01 µM); 0.213 with Tipifarnib + Pemetrexed (first compound 0.03162 µM); 0.157 with Tipifarnib + Pemetrexed (first compound 0.1 µM). The relative viability was determined as 0.139 with Tipifarnib + Pemetrexed (first compound 0.3162 µM) and 0.116 with Tipifarnib + Pemetrexed (first compound 1 µM).

In the case of 201T, the relative viability in the assay with Tipifarnib + Navitoclax (first compound 0.01 µM) turned out to be 1.21; in the assay with Tipifarnib + Navitoclax (first compound 0.03162 µM), 1.23; in the assay with Tipifarnib + Navitoclax (first compound 0.1 µM) it was 1.2; in the assay with Tipifarnib + Navitoclax (first compound 0.3162 µM), 1.15; with Tipifarnib + Navitoclax (first compound 1 µM), 1.18; with Tipifarnib + Trametinib (first compound 0.01 µM) it was 0.75. Further, the relative viability amounted to 0.734 in the assay with Tipifarnib + Trametinib (first compound 0.03162 µM); 0.722 with Tipifarnib + Trametinib (first compound 0.1 µM); 0.656 in the assay with Tipifarnib + Trametinib (first compound 0.3162 µM); 0.649 with Tipifarnib + Trametinib (first compound 1 µM); 0.493 in the assay with Tipifarnib + Phenformin (first compound 0.01 µM); 0.441 in the assay with Tipifarnib + Phenformin (first compound 0.03162 µM). Also, the relative viability was determined as 0.457 with Tipifarnib + Phenformin (first compound 0.1 µM); 0.402 in the assay with Tipifarnib + Phenformin (first compound 0.3162 µM); 0.362 with Tipifarnib + Phenformin (first compound 1 µM); 0.363 with Tipifarnib + Pemetrexed (first compound 0.01 µM); 0.338 in the assay with Tipifarnib + Pemetrexed (first compound 0.03162 µM); 0.371 with Tipifarnib + Pemetrexed (first compound 0.1 µM). Also, the relative viability was determined as 0.317 in the assay with Tipifarnib + Pemetrexed (first compound 0.3162 µM) and 0.346 with Tipifarnib + Pemetrexed (first compound 1 µM).
